From patent US20060063755A1, “Loxapine analogs and methods of use thereof” (priority 2004, published 2006)
Read-outs that look alike come from different tables or passages of the source.

Columns and labels:
D2 receptors [1] = target: D2 receptors (Rattus norvegicus, UniProt P61169); assay: Dopamine D2 binding, rat
Description: (§1) Binding assays were performed using the disclosed sleep-inducing agents and derivatives selected from those listed in Table 1 in competitive binding assays with known standards for the H1 histamine receptor, and the M1, M2, and M3 muscarinic receptors, alpha 1 and alpha 2 receptors, and D1 and D2 receptors.

D2 receptors [2] = target: D2 receptors (Homo sapiens, UniProt P14416); assay: Dopamine D2 binding assay (human)
D2 receptors (Homo sapiens, UniProt P14416), sequence (P14416 whole entry): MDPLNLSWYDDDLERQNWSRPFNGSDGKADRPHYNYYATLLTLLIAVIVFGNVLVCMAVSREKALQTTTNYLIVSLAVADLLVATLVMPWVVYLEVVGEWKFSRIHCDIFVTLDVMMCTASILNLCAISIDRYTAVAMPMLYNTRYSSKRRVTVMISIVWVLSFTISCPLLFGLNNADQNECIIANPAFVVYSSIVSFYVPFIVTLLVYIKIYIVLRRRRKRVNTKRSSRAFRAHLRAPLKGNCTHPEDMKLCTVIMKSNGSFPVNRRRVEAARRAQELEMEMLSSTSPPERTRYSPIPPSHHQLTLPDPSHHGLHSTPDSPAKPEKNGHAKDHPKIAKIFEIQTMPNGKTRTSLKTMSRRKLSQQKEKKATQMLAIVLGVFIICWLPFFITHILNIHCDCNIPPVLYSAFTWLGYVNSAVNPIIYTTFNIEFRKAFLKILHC
Description: as §1, with “receptors. […]” for “receptors.”

alpha 1 receptors = assay: Alpha 1 receptor binding assay; conditions: read-out: Ki Alpha1
Description: as §1

Dopamine, D1 [3] = target: Dopamine, D1 (Homo sapiens, UniProt P21728); assay: Dopamine D1 (human recombinant) binding assay
Dopamine, D1 (Homo sapiens, UniProt P21728), sequence (P21728 whole entry): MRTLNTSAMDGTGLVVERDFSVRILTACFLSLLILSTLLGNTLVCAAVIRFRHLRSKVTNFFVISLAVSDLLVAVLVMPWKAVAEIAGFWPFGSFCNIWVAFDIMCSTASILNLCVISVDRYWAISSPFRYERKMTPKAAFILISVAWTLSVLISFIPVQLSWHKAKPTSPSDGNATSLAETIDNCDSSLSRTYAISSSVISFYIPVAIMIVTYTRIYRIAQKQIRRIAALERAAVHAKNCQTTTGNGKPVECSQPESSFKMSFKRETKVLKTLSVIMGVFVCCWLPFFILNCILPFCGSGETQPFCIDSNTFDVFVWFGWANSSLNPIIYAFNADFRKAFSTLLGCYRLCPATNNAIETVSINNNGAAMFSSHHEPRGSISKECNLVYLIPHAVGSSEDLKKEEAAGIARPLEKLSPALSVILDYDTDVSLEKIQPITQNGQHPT
Description: as §1
Dopamine, D1 (human recombinant) binding assay was performed according to published procedures. See, e.g., Jarvie, et al. J. Recept Res., 13(1-4): 573-90 (1993); and Billard, et al. Life Sciences, 35(18): 1885-93 (1984), with modifications

M1 muscarinic receptor [4] = target: T1, M1 muscarinic receptor (Homo sapiens, UniProt P11229); assay: M1 binding assay, [3H]-scopolamine N-methyl chloride, CHO cells; conditions: human recombinant
T1 construct: purchased PerkinElmer, Inc., Wellesley, Mass; host or cells: CHO cells
T1 sequence (P11229 1-460): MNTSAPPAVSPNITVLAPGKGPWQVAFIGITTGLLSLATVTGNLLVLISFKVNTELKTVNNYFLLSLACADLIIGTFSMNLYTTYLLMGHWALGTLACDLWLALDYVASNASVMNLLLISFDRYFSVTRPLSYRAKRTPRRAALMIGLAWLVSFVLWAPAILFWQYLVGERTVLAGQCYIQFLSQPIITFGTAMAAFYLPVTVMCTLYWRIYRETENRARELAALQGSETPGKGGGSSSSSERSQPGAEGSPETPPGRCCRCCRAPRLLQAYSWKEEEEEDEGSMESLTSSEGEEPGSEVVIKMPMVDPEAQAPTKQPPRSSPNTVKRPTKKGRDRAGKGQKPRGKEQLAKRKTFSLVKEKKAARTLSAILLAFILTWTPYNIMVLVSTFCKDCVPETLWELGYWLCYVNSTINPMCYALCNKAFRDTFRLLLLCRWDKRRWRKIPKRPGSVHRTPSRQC

M3 muscarinic receptor = target: T2, M3 muscarinic receptor (Homo sapiens, UniProt P20309); assay: M3 binding assay, [3H]-scopolamine N-methyl chloride, CHO cells; conditions: human recombinant
T2 construct: purchased PerkinElmer, Inc., Wellesley, Mass; host or cells: CHO cells
T2 sequence (P20309 whole entry): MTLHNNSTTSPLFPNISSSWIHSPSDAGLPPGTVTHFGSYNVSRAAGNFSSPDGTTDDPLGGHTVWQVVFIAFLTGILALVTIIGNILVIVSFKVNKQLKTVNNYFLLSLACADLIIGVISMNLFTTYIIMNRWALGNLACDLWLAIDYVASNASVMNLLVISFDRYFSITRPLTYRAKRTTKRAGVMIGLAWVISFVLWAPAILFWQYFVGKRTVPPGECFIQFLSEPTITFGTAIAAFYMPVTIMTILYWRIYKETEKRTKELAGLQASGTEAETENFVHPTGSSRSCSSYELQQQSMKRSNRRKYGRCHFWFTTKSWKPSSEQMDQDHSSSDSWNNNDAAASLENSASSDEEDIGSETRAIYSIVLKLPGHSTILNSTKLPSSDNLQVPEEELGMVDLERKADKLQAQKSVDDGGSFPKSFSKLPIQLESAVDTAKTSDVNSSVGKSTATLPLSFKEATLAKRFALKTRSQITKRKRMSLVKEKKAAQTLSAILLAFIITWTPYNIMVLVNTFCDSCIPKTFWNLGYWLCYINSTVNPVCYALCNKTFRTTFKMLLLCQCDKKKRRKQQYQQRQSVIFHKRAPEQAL

hERG channel = hERG channel (Homo sapiens, UniProt Q12809); assay: hERG channel current block, whole cell recording in HEK293 cells; format: cell-based; conditions: HEK293 cells expressing hERG
hERG channel, sequence (Q12809 whole entry): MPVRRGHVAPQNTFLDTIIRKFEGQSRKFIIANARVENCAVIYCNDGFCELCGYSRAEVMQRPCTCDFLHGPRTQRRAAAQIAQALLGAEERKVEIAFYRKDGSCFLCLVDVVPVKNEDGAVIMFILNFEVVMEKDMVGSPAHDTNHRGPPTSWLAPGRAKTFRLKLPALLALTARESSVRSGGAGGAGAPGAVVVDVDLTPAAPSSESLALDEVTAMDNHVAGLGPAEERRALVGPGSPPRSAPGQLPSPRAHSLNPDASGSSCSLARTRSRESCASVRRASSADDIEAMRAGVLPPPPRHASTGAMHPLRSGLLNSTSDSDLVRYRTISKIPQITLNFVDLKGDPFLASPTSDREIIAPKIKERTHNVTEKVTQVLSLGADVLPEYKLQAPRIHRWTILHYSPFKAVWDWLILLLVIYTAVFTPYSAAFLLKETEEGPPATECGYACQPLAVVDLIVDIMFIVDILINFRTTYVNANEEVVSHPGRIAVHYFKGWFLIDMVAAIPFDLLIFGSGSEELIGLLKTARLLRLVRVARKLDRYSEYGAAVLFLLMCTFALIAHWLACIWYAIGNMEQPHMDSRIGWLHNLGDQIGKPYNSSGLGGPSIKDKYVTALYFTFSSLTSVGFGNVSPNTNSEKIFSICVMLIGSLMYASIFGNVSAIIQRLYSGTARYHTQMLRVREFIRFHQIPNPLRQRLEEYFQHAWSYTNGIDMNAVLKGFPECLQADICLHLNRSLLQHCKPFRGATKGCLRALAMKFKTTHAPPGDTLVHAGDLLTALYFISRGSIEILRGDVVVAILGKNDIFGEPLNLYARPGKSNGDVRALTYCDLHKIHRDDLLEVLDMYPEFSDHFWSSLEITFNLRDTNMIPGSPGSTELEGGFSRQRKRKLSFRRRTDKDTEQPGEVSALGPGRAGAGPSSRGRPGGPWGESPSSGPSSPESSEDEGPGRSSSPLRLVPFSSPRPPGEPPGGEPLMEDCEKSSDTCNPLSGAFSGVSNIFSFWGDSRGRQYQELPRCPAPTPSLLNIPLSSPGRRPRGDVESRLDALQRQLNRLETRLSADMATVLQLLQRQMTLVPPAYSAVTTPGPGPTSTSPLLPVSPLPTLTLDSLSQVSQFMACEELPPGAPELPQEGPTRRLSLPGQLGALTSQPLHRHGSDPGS
Description: Other in vitro selection criteria for loxapine analogs of the invention includes hERG binding.
(Brown and Rampe (2000)).
In one embodiment of the HERG assay, the positive control (i.e., reference compound) is terfenadine (Sigma, St. Louis Mo.), which has been shown, at a concentration of 60 nM, to block HERG current by approximately 75%. Test compounds are delivered in HEPES-buffered physiological saline (HB-PS)+0.1% dimethyl sulfoxide (DMSO).
Clin. Exp. Allergy 29 Suppl 3, 174-181.
If the final DMSO concentration must be greater than 0.3%, to reach a specified test article concentration, a separate vehicle control test with an n>2 was performed at the highest final DMSO concentration.
Each cell acted as its own control. […] One concentration of the positive control article (60 nM terfenadine) was applied to two cells (n≧2).

alpha 2 receptors = assay: Alpha 2 receptor binding assay; conditions: read-out: Ki Alpha2
Description: as §1

M1 muscarinic receptor [5] = target: T1, M1 muscarinic receptor; conditions: reference compounds; read-out: Ki of reference compounds, M1 binding assay; cited from earlier work
H1 histamine receptor [6] = target: T3, H1 histamine receptor (Bos taurus, UniProt P30546); assay: H1 competitive binding assay, [3H]pyrilamine, bovine cerebellar membranes; conditions: bovine cerebellar membrane
T3 construct: the receptors were obtained from bovine cerebellar membrane tissue; from tissue; host or cells: bovine cerebellar membranes
T3 sequence (P30546 whole entry): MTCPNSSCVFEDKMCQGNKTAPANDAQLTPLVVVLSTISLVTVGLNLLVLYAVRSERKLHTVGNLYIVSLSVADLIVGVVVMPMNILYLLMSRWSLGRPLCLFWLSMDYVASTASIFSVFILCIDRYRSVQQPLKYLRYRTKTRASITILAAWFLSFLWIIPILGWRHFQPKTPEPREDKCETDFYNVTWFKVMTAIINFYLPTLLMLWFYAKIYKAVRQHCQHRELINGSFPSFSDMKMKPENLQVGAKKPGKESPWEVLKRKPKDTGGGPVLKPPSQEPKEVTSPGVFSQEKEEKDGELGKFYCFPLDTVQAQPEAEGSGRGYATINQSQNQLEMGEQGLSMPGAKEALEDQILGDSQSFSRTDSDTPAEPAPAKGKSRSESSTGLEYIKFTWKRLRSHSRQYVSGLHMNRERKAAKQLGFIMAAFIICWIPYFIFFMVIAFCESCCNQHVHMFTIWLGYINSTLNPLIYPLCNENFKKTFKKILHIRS

M2 muscarinic receptor = target: T4, M2 muscarinic receptor (Homo sapiens, UniProt P08172); assay: M2 binding assay, [3H]-scopolamine N-methyl chloride, CHO cells; conditions: human recombinant
T4 construct: purchased PerkinElmer, Inc., Wellesley, Mass; host or cells: CHO cells
T4 sequence (P08172 1-466): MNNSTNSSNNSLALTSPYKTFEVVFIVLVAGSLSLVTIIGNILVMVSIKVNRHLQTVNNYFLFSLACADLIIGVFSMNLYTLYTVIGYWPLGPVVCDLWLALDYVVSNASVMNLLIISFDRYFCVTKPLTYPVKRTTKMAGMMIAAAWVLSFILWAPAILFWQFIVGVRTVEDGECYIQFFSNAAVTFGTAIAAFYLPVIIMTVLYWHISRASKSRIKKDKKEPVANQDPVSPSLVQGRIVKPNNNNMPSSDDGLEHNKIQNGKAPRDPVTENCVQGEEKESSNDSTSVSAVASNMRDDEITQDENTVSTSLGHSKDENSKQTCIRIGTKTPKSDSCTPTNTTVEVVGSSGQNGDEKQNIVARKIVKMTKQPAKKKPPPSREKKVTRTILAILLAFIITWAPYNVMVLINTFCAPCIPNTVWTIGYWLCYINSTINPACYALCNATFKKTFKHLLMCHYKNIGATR

H1 histamine receptor [7] = target: H1 histamine receptor (Rattus norvegicus, UniProt P31390); assay: H1 binding, rat (footnote of Table 8)
H1 histamine receptor (Rattus norvegicus, UniProt P31390), sequence (P31390 whole entry): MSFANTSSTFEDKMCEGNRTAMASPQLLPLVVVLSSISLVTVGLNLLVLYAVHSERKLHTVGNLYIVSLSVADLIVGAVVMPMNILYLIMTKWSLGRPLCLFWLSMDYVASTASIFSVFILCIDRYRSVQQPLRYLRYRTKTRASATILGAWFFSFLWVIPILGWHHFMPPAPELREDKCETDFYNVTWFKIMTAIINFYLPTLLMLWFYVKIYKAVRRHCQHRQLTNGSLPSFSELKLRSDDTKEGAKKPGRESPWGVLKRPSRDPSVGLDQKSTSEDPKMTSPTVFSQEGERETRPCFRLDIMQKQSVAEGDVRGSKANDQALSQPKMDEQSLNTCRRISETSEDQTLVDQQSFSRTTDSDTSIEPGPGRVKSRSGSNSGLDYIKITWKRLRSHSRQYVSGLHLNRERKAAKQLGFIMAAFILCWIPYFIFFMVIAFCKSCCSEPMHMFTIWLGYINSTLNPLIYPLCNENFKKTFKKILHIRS
Description: as §1

male Wistar rats = assay: Sleep-wakefulness monitoring (SCORE-2000, EEG/EMG) after oral dosing at CT-18; format: in vivo, rat
Description: Food and water were available ad libitum.
Treatments were administered orally as a bolus.
A parallel group study design was employed.
The results of NREM and LUSB parameters were measured for the loxapine derivatives such as Compounds 1, 2, 3, 5, 6, 7, 8, 9, 10, 12, 14, 17, 19, 20, 21, 23, 30, 31, 32, 39, 40, 42, 46, 50, 51, 52, 54, 56, and 58 and other compounds listed in Table 1.

H1 histamine receptor [8] = target: H1 histamine receptor (Homo sapiens, UniProt P35367); assay: H1 binding, human (footnote of Table 8)
H1 histamine receptor (Homo sapiens, UniProt P35367), sequence (P35367 whole entry): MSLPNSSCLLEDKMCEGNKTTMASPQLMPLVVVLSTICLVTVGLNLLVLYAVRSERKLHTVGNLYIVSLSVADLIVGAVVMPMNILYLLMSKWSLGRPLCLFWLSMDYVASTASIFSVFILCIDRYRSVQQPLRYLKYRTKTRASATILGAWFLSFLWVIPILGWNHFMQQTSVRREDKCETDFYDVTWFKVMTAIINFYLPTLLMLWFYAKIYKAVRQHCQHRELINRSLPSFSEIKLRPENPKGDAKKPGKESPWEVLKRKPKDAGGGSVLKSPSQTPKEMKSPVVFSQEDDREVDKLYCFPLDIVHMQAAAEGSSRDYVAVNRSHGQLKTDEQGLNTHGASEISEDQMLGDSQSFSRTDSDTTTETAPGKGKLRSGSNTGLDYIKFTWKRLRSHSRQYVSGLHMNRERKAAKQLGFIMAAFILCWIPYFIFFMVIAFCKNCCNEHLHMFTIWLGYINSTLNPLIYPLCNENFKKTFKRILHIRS
Description: as §1

Dopamine, D1 [9] = target: Dopamine, D1 (Rattus norvegicus, UniProt P18901); assay: Dopamine D1 binding, rat
Dopamine, D1 (Rattus norvegicus, UniProt P18901), sequence (P18901 whole entry): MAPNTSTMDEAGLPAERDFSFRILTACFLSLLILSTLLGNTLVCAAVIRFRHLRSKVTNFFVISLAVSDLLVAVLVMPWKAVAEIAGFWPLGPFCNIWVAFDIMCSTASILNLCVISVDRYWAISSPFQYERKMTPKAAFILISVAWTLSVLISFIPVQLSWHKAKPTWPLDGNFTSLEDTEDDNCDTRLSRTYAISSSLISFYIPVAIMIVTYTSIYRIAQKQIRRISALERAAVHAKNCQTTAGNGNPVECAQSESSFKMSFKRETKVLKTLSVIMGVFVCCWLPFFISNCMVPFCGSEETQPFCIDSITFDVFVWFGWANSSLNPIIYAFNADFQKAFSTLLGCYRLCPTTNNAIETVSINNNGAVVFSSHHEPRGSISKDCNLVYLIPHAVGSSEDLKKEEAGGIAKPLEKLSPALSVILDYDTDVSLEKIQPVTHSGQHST
Description: as §1

D2 receptors (Rattus norvegicus, UniProt P61169), sequence (P61169 whole entry): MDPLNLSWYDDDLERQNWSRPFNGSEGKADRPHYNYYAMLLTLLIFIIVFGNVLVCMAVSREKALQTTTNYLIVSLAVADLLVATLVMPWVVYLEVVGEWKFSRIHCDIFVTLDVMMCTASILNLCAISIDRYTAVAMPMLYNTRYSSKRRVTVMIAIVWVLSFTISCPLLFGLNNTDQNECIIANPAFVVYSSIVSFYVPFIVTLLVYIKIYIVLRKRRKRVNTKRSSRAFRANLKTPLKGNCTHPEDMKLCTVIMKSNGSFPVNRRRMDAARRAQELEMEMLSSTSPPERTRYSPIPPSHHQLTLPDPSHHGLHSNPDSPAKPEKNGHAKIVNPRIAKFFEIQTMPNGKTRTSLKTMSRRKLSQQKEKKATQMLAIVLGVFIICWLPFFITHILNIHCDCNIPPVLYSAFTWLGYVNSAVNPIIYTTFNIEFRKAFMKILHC

Compound	Ki (D2 receptors [1])	Ki (D2 receptors [2])	Ki (alpha 1 receptors)	Ki (Dopamine, D1 [3])	Ki (M1 muscarinic receptor [4])	Ki (M3 muscarinic receptor)	hERG at 10 micromolar (% blocking of the hERG channel) (hERG channel)	Ki (alpha 2 receptors)	Ki (M1 muscarinic receptor [5])	Ki (H1 histamine receptor [6])	Ki (M2 muscarinic receptor)	Ki (H1 histamine receptor [7])	NREM (male Wistar rats; dose 3 mg/kg)	Ki (H1 histamine receptor [8])	Ki (Dopamine, D1 [9])	NREM (male Wistar rats; dose 30 mg/kg)
CC(C)(CN1CCN(C2=Nc3ccccc3Oc3ccc(F)cc32)CC1)C(=O)O [Compound 4]	2.73 µM	> 10 µM	> 10 µM	> 10 µM	> 10 µM	> 10 µM	8%	> 10 µM	–	–	–	–	–	–	–	–
C[N+]1(C)CCC(OC(=O)C(c2ccccc2)c2ccccc2)CC1 [4-DAMP methiodide]	–	–	–	–	–	–	–	–	0.00027 µM	–	–	–	–	–	–	–
CC(C)(CN1CCN(C2=Nc3ccccc3Oc3ccc(Cl)cc32)CC1)C(=O)O [Compound 5]	–	1.61 µM	3.02 µM	4.52 µM	> 10 µM	> 10 µM	36%	> 10 µM	–	0.0239 µM	> 10 µM	–	–	–	–	–
COc1ccc2c(c1)N=C(N1CCN(CC(C)(C)C(=O)O)CC1)c1cc(OC)ccc1O2 [Compound 23]	–	> 10 µM	> 10 µM	> 10 µM	> 10 µM	> 10 µM	8.90%	> 10 µM	–	0.135 µM	> 10 µM	–	–	–	–	–
COc1ccc2c(c1)C(N1CCN(CC(C)(C)C(=O)O)CC1)=Nc1ccccc1O2 [Compound 12]	–	1.24 µM	> 10 µM	5.22 µM	> 10 µM	> 10 µM	7.20%	> 10 µM	–	0.137 µM	> 10 µM	–	–	–	–	–
COc1ccc2c(c1)C(N1CCN(CC(C)(C)C(=O)O)CC1)=Nc1cc(Br)ccc1O2 [Compound 51]	–	0.17 µM	0.148 µM	1.04 µM	> 10 µM	> 10 µM	32%	0.966 µM	–	0.0278 µM	> 10 µM	–	–	–	–	–
Cc1ccc2c(c1)N=C(N1CCN(CC(C)(C)C(=O)O)CC1)c1ccccc1O2 [Compound 19]	–	3.16 µM	> 10 µM	6.8 µM	> 10 µM	> 10 µM	9.90%	> 10 µM	–	0.0395 µM	> 10 µM	–	–	–	–	–
CC(C)(CN1CCN(C2=Nc3ccccc3Oc3ccccc32)CC1)C(=O)O [Compound 1]	> 10 µM	> 10 µM	> 10 µM	> 10 µM	> 10 µM	> 10 µM	6.2%	> 10 µM	–	0.0403 µM	> 10 µM	0.0115 µM	39 ± 6 min	0.0237 µM	> 10 µM	–
O=C(O)C1(CN2CCN(C3=Nc4ccccc4Oc4ccccc43)CC2)CC1 [Compound 2]	–	> 10 µM	> 10 µM	> 10 µM	> 10 µM	> 10 µM	19%	> 10 µM	–	0.0514 µM	> 10 µM	–	–	–	–	–
Cc1ccc2c(c1)C(N1CCN(CC(C)(C)C(=O)O)CC1)=Nc1cc(Br)ccc1O2 [Compound 50]	–	0.36 µM	0.595 µM	1.14 µM	> 10 µM	> 10 µM	45.00%	1.95 µM	–	0.0318 µM	> 10 µM	–	–	–	–	–
Cc1ccc2c(c1)Oc1ccccc1C(N1CCN(CC(C)(C)C(=O)O)CC1)=N2 [Compound 30]	–	> 10 µM	> 10 µM	5.06 µM	> 10 µM	> 10 µM	4.50%	> 10 µM	–	0.0906 µM	> 10 µM	–	–	–	–	–
CC(C)(CN1CCN(C2=Nc3ccccc3Oc3ccccc32)CC1)C(=O)NS(C)(=O)=O [Compound 40]	> 10 µM	1.87 µM	> 10 µM	> 10 µM	> 10 µM	> 10 µM	5.6%	> 10 µM	–	0.0228 µM	> 10 µM	0.0588 µM	–	0.0317 µM	> 10 µM	43 ± 4 min
Cc1ccc2c(c1)C(N1CCN(CC(C)(C)C(=O)O)CC1)=Nc1ccccc1O2 [Compound 10]	–	1.67 µM	> 10 µM	3.16 µM	> 10 µM	> 10 µM	14%	> 10 µM	–	0.0396 µM	> 10 µM	–	–	–	–	–
CC(C)(CCN1CCN(C2=Nc3ccccc3Oc3ccccc32)CC1)C(=O)O [Compound 3]	–	1.19 µM	> 10 µM	4.92 µM	> 10 µM	> 10 µM	3.8%	> 10 µM	–	0.00733 µM	> 10 µM	–	–	–	–	–
